Results published in patent publication US11479611B2 (China Medical University Hospital, priority 2019, dated 2022).

Columns and labels:
Format in all cases: cell-based
[1] = system: human breast cancer cell line MDA-MB-231; assay: tumor cell death (cytotoxicity), Annexin V-FITC/PI flow cytometry; conditions: treated alone; doxorubicin 200 nM or 1×10^5 parental cells
Procedure: (§1) The cells are subsequently incubated for 24 hours. […] In a control, the tumor cells are untreated.
as §1

[2] = system: HLA-G on the plasma membrane of the human breast cancer cell line MDA-MB-231; assay: HLA-G expression level of tumor cells by flow cytometry; conditions: 200 nM, 48 hours, compared to untreated control, p<0.001
Procedure: First, the human breast cancer cell line MDA-MB-231, the human malignant brain tumor cell line DBTRG, the human pancreatic cancer cell line AsPC1 and the human ovarian cancer cell line SKOV3 are seeded in a 6-well plate at a density of 2×10^5 cells/well. The cells are subsequently incubated for 24 hours. Each type of the tumor cells is divided into two groups. In a control, the tumor cells are untreated. In an experiment group, the tumor cells are treated with the chemotherapy drug for 48 hours. […] Then, the HLA-G expression level of the tumor cells are detected by flow cytometry.

[3] = system: HLA-G on the plasma membrane of the human ovarian cancer cell line SKOV3; assay: as above; conditions: 20 μM, 48 hours, compared to untreated control, p<0.001
[4] = system: human ovarian cancer cell line SKOV3; assay: tumor cell death (cytotoxicity), Annexin V-FITC/PI flow cytometry; conditions: treated alone; carboplatin 20 μM or 1×10^5 parental cells
Procedure: (§2) The cells are subsequently incubated for 24 hours. Each type of the tumor cells is divided into six groups. In a control, the tumor cells are untreated. In a group 1, the tumor cells are treated with the chemotherapy drug. In a group 2, the tumor cells are treated with the parental primary NK cell. In a group 3, the tumor cells are treated with the parental primary NK cell and the chemotherapy drug. In the groups 2 and 3, the number of the parental primary NK cell treated is 1×10^5 cells. In a group 4, the tumor cells are treated with the Example 1. In a group 5, the tumor cells are treated with the Example 1 and the chemotherapy drug. […] The treated cells are stained with Annexin V-FITC and propidium iodide (PI), and the apoptosis and the death of the tumor cells are detected by the flow cytometry. The sum of the percentage of cells stained with Annexin V-FITC and/or PI (that is the percentage of cells in the first quadrant, the second quadrant, and the fourth quadrant of the bivariate flow cytometry scatter plot) are calculated to obtain the cytotoxicity. The results of the cytotoxicity are counted after the three independent trials in each group.
(§3) The cells are subsequently incubated for 24 hours. […] The treated cells are stained with Annexin V-FITC and propidium iodide (PI), and the apoptosis and the death of the tumor cells are detected by the flow cytometry. […]

[5] = system: human pancreatic cancer cell line AsPC1; assay: as above; conditions: treated alone; gemcitabine 20 μM or 1×10^5 parental cells
Procedure: as §2, §3

`COc1cccc2c1C(=O)c1c(O)c3c(c(O)c1C2=O)C[C@@](O)(C(=O)CO)C[C@@H]3O[C@H]1C[C@H](N)[C@H](O)[C@H](C)O1` [doxorubicin] was tested, and the “death rate of MDA-MB-231 compared to the control (in words)” value [1] was “increased, but there is no statistically significant difference compared to the control” and the “expression of HLA-G on the plasma membrane of MDA-MB-231” value [2] was “increase the expression of HLA-G”.
For `N.N.O=C([O-])C1(C(=O)[O-])CCC1.[Pt+2]` [carboplatin], the “expression of HLA-G on the plasma membrane of SKOV3” value [3] was “increase the expression of HLA-G” and the “death rate of SKOV3 compared to the control (in words)” value [4] was “increased, but there is no statistically significant differences compared to the control”.
`Nc1ccn([C@@H]2O[C@H](CO)[C@@H](O)C2(F)F)c(=O)n1` [gemcitabine] was tested, and the “death rate of AsPC1 compared to the control (in words)” value [5] was “increased, but there is no statistically significant difference compared to the control”.
